For one data set, the target named is T1, human P-glycoprotein (Homo sapiens, UniProt P08183).
T1 construct: host or cells: porcine kidney-derived LLC-PK1 cells
Description: Assay on P-glycoprotein substrate specificity (transcellular transport, LLC-PK1 cells expressing human P-glycoprotein). The data set is classed as in vitro ADME. Conditions: for efflux ratio at 3 h, 1 μM: pH 7.4, 1 μM test compound, human P-gp expressing LLC-PK1 cells, read-out: BA/AB (ratio of permeability coefficients Papp B to A / A to B). As to the method:
P-glycoprotein (P-gp) substrate specificities were assessed in a transcellular transport assay system using cells expressing human P-glycoprotein. The human P-glycoprotein expression cells employing porcine kidney-derived LLC-PK1 cells as host cells were obtained from Dr. Alfred Schinkel in the Netherlands Cancer Institute [see Journal of Clinical Investigation, vol. 96, p. […] The cells were seeded on a filter membrane of 24-well HTS multiwell insert system (manufactured by Beckton Dickinson) to have a concentration of 0.15 million cells/well. The cells were cultured for about 1 week to form a single layer film by the cells. The multiwell insert system is divided into two compartments (the apical membrane side compartment and the basolateral membrane side compartment). Prior to the transport experiment, cell culture media on both sides (apical and basolateral sides) were replaced by Hank's balanced salt solution (HBSS) containing an assay buffer solution (10 mM Hepes (pH 7.4)). After about 1 hour, the basolateral and apical solutions were replaced by an assay buffer solution (0.5 mL) and a 1 μM test compound-containing assay buffer solution (0.5 mL), respectively, and the transport experiment was started for transportation from Apical to Basolateral (from A to B). After 3 hours, each 50 μL was collected as a measuring sample from both of the apical and basolateral sides. The reverse operation thereof was carried out for transportation from Basolateral to Apical (from B to A). […] After termination of the transport experiment, an equal amount of acetonitrile containing the internal standard was added to each measuring sample. The measuring samples were measured using LC-MS/MS to calculate the concentrations of the test compounds by a relative calibration curve method. The permeability coefficients of the test compounds transported in each of from A to B and from B to A were calculated (Papp: Expression 1). The ratios of the permeability coefficients between A to B and B to A were also determined (BA/AB: Expression 2). BA/AB was considered to be an index of P-glycoprotein (p-gp) substrate specificity [see Drug Metabolism and Disposition, vol. 31, p.
Papp=(0.5 mL×CR)/((CD+CR)×3 hr×Area) Expression 1
BA/AB=Papp(B to A)/Paap(A to B) Expression 2
Area: surface area of filter; CD: concentration of test compound in donor side after 3 hours; CR: concentration of test compound in receiver side after 3 hours

The next data set concerns the target T2, human NPY Y1 receptor (Homo sapiens, UniProt P25929).
T2 construct: expressed in transfected cells; host or cells: CHO-K1 NFAT β-Lactamase (Aurora)
T2 sequence (P25929 1-384): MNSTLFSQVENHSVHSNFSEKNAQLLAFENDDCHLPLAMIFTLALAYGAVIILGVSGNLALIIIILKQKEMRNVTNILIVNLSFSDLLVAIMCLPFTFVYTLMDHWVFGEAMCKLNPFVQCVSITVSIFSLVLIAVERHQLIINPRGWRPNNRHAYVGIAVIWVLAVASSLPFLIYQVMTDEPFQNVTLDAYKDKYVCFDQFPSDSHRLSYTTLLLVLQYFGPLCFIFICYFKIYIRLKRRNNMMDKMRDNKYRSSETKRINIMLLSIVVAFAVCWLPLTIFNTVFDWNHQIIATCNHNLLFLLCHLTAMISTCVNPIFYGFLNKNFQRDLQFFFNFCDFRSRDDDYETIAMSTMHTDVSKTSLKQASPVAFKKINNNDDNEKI
Briefly: NPY binding inhibition test ([125I] peptide YY binding to membranes of NPY Y1 receptor expressing CHO-K1 cells). Conditions: membrane of CHO-K1 cells expressing human NPY Y1 receptor, 25° C., 2 hours; read-out: IC50 against specific [125I] peptide YY binding. From the text: A cDNA sequence encoding a human NPY Y1 receptor (Accession No. L07615) was cloned into expression vectors pEF1x (made by Invitrogen Inc.).

T1 sequence (P08183 whole entry): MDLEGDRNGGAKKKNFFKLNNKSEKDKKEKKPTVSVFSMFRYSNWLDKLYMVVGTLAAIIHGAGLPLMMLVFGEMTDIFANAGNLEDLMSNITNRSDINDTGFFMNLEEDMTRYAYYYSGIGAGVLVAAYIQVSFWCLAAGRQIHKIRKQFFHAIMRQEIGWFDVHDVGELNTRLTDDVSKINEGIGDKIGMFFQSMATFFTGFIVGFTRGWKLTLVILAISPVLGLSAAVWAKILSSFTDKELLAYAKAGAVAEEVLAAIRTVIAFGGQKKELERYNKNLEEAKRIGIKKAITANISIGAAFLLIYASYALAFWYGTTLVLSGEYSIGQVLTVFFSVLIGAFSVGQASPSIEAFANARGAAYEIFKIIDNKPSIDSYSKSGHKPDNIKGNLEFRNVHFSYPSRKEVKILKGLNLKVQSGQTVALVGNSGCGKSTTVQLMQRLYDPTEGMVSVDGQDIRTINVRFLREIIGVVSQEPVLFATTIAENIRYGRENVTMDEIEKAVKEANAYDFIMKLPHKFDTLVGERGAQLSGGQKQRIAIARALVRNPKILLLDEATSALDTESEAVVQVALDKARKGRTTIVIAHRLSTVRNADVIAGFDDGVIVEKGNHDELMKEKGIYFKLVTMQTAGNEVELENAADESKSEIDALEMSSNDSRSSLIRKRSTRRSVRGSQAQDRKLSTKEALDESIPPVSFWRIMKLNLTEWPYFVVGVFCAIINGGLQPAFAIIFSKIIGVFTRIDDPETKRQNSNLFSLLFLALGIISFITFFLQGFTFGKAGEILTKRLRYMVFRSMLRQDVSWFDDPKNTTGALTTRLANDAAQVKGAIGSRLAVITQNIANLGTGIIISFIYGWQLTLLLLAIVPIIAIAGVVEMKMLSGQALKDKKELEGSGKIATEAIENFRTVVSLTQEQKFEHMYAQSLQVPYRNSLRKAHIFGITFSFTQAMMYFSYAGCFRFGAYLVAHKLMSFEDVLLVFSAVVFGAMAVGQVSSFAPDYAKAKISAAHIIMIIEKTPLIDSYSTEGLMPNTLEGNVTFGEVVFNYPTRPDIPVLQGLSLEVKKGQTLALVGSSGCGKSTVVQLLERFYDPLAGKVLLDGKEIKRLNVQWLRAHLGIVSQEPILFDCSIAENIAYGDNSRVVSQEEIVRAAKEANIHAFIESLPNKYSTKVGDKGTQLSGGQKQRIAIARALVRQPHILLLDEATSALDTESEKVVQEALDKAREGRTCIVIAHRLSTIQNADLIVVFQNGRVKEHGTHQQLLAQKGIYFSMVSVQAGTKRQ

As to `C=CCOC(=O)Nc1cccc(CNc2cc(C3CCOCC3)cc(CSc3nnc(CC)s3)n2)c1` [Compound (A), reference compound], the efflux ratio at 3 h, 1 μM on human P-glycoprotein stood at 5. The IC50 – broadly, the midpoint of a concentration-inhibition curve – at human NPY Y1 receptor was found to be 0.33 nM. Consider `Cc1nc(SCc2cc(N3CCSCC3)cc(NCc3cccc(F)n3)n2)oc1C` [Example 1, 6-{[(4,5-dimethyl-1,3-oxazol-2-yl)sulfanyl]methyl}-N-[(6-fluoropyridin-2-yl)methyl]-4-(thiomorpholin-4-yl)pyridin-2-amine], for which, on human P-glycoprotein, the “human P-glycoprotein substrate specificity (in words)” value was “notably low human P-glycoprotein substrate specificity” and the efflux ratio at 3 h, 1 μM was determined as 1.9. For the same compound, the IC50 at human NPY Y1 receptor amounted to 0.27 nM.

For the compound `Cc1cccc(CNc2cc(N3CCSCC3)cc(CSc3nc(C)c(C)s3)n2)n1` [Example 2, 6-{[(4,5-dimethyl-1,3-thiazol-2-yl)sulfanyl]methyl}-N-[(6-methylpyridin-2-yl)methyl]-4-(thiomorpholin-4-yl)pyridin-2-amine], the IC50 on human NPY Y1 receptor came out at 0.17 nM. The same measure, in the same setting: with `CCc1sc(SCc2cc(N3CCC(F)CC3)cc(NCc3cccc(C)n3)n2)nc1C` [Example 3, 6-{[(5-ethyl-4-methyl-1,3-thiazol-2-yl)sulfanyl]methyl}-4-(4-fluoropiperidin-1-yl)-N-[(6-methylpyridin-2-yl)methyl]pyridin-2-amine] the figure was 0.26 nM; with `C=CCNc1cc(N2[C@@H]3CC[C@H]2C[C@H](F)C3)cc(CSc2nc(C)c(CC)s2)n1` [Example 4, 6-{[(5-ethyl-4-methyl-1,3-thiazol-2-yl)sulfanyl]methyl}-4-[(3-exo)-3-fluoro-8-azabicyclo[3,2,1]octo-8-yl]-N-(prop-2-en-1-yl)pyridin-2-amine], 0.27 nM; with `Cc1cccc(CNc2cc(N3C4CCC3CC(F)(F)C4)cc(CSc3cc(C)n(C)n3)n2)n1` [Example 5, 4-(3,3-difluoro-8-azabicyclo[3,2,1]octo-8-yl)-6-{[(1,5-dimethyl-1H-pyrazol-3-yl)sulfanyl]methyl}-N-[(6-methylpyridin-2-yl)methyl]pyridin-2-amine], 0.24 nM. On the same count and under the same terms, with `C=CCNc1cc(N2CCC(F)(F)CC2)cc(CSc2cc(CC)n(C)n2)n1` [Example 6, 4-(4,4-difluoropiperidin-1-yl)-6-{[(5-ethyl-1-methyl-1H-pyrazol-3-yl)sulfanyl]methyl}-N-(prop-2-en-1-yl)pyridin-2-amine] the figure was 0.28 nM; with `CCCCNc1cc(N2CCC(F)(F)CC2)cc(CSc2nn(C)c(CC)c2C)n1` [Example 7, N-butyl-4-(4,4-difluoropiperidin-1-yl)-6-{[(5-ethyl-1,4-dimethyl-1H-pyrazol-3-yl)sulfanyl]methyl}pyridin-2-amine], 0.27 nM. In the case of `CCc1c(C)c(SCc2cc(N3CCC(F)(F)CC3)cc(NCCOC)n2)nn1C` [Example 8, 4-(4,4-difluoropiperidin-1-yl)-6-{[(5-ethyl-1,4-dimethyl-1H-pyrazol-3-yl)sulfanyl]methyl}-N-(2-methoxyethyl)pyridin-2-amine], the half-maximal inhibitory concentration (IC50) on human NPY Y1 receptor was 0.27 nM. On to `Cc1cccc(CNc2cc(N3CCOCC3)cc(CSc3nc(CF)c(C)s3)n2)n1` [Example 9, 6-({[4-(fluoromethyl)-5-methyl-1,3-thiazol-2-yl]sulfanyl}methyl)-N-[(6-methylpyridin-2-yl)methyl]-4-(morpholin-4-yl)pyridin-2-amine], for which, at human P-glycoprotein, the “human P-glycoprotein substrate specificity (in words)” value is on record as “notably low human P-glycoprotein substrate specificity” and the efflux ratio at 3 h, 1 μM stood at 1.8. In addition, the IC50 on human NPY Y1 receptor was 0.2 nM.

For `CCc1sc(SCc2cc(N3CCOCC3)cc(NCc3cccc(C)n3)n2)nc1CF` [Example 10, 6-({[5-ethyl-4-(fluoromethyl)-1,3-thiazol-2-yl]sulfanyl}methyl)-N-[(6-methylpyridin-2-yl)methyl]-4-(morpholin-4-yl)pyridin-2-amine], the IC50 on human NPY Y1 receptor was found to be 0.13 nM. Still for that read-out and setting: with `Cc1cccc(CNc2cc(N3CCOCC3)cc(CSc3nc(CF)c(C4CC4)s3)n2)n1` [Example 11, 6-({[5-cyclopropyl-4-(fluoromethyl)-1,3-thiazol-2-yl]sulfanyl}methyl)-N-[(6-methylpyridin-2-yl)methyl]-4-(morpholin-4-yl)pyridin-2-amine] the figure was 0.19 nM.

(Values after US20120028970A1, “HETEROARYLTHIOMETHYL PYRIDINE DERIVATIVE” (MSD K.K., priority 2009, published 2012).)
